Values belong to the molecule of their own block, whether it stands above or below them. Oligonucleotides are written 5' to 3', each unit as a sugar letter and its base; * is a phosphorothioate linkage, no mark a phosphodiester; rarer units and linkages stand in square brackets, end groups in braces. Plain capitals give the bases only. d = 2'-deoxy (DNA)
How the values were obtained:
AR = assay: qRT-PCR of AR and AR target gene expression in prostate cancer cells; assay type: cell-based, human
Procedure: (§1) NXTAR-N5 oligonucleotide was synthesized by IDT, and the oligonucleotide sequence is provided in TABLE 1 and FIG. 7C (* represents phosphorothioate bond modifications to avoid degradation by exonucleases). Equal numbers of VCaP and 22Rv1 cells were transfected with NXTAR-N5 or globin-derived oligonucleotide using X-tremeGENE360 (Sigma-Aldrich, Cat #08724121001), and the number of live cells was counted 96 h post-transfection using trypan blue exclusion method (Sigma, Cat #T8154). RNA was prepared from these cells, and qRT-PCR [SYBR PremixEx Taq II (Tli RNase H Plus)ROX, Clontech Takara, Cat #RR82LR] for AR and AR-V7 was performed as described earlier (see e.g., Mahajan et al. (2017) Cancer Cell).
(§2) Cells were transfected, infected or treated [(R)-9b; EPZ6438, TargetMol, Cat #T1788] accordingly. RNA was used for cDNA preparation using High-Capacity cDNA Reverse Transcription Kit (Thermo Scientific Cat #4368814). Resulting cDNA was then analyzed by qPCR using an Applied Biosystems 7900 Real-Time PCR System (Thermo Scientific) and SYBR Green PCR Master Mix [SYBR PremixEx Taq II (Tli RNase H Plus) ROX, Clontech Takara, Cat #RR82LR] according to the manufacturers' instructions. Dissociation curves were generated for each plate to verify the integrity of the primers. The relative expression of RNAs was calculated using the comparative Ct or standard curve method. 18S rRNA or actin were used as internal controls.

upstream of AR = assay: ChIRP with biotin-labeled oligos and VCaP lysate, qPCR with AR Up1.1 primers; assay type: binding, human; conditions: biotinylated oligo on streptavidin beads, VCaP lysate, qPCR AR Up1.1
Procedure: (§3) Biotin-labeled NXTAR-N5 (complementary to the AR promoter) and globin oligos were synthesized (IDT) (see e.g., TABLE 1). ChIRP was performed using lysate from formaldehyde-fixed VCaP cells and oligos that were immobilized to streptavidin beads, as described earlier (see e.g., Chu and Chang (2016) Methods Mol Bio). The amount of the chromatin DNA was determined by real-time PCR. For detection of NXTAR-N5/EZH2 binding, biotin-labeled NXTAR-N5 oligo and control globin oligo were incubated with VCaP cell lysates and were subjected to chromatin pull-down, followed by immunoblotting with EZH2 antibodies.

VCaP and 22Rv1 cells = assay: Proliferation assay, viable cells by trypan blue exclusion; assay type: cell-based, human
Procedure: as §1
The 22Rv1, VCaP, or LNCaP cells were retrovirally infected with control or NXTAR vectors and selected in puromycin medium containing 5% charcoal-stripped serum. Equal numbers of selected cells were seeded in 6-well plates followed by treatment with either (R)-9b, enzalutamide (Selleck Chemicals, Cat #S1250), or abiraterone (Selleck Chemicals, Cat #52246), and the number of viable cells was counted by trypan blue exclusion assay.

EZH2 = target: T1, EZH2 (Homo sapiens, UniProt Q15910); assay: Pull-down from VCaP cell lysates with biotinylated oligos, immunoblotting for EZH2; assay type: binding; conditions: VCaP cell lysate, chromatin pull-down
T1 construct: endogenous in cells; host or cells: VCaP cells (some retrovirally infected to over-express NXTAR lncRNA)
T1 sequence (Q15910 whole entry): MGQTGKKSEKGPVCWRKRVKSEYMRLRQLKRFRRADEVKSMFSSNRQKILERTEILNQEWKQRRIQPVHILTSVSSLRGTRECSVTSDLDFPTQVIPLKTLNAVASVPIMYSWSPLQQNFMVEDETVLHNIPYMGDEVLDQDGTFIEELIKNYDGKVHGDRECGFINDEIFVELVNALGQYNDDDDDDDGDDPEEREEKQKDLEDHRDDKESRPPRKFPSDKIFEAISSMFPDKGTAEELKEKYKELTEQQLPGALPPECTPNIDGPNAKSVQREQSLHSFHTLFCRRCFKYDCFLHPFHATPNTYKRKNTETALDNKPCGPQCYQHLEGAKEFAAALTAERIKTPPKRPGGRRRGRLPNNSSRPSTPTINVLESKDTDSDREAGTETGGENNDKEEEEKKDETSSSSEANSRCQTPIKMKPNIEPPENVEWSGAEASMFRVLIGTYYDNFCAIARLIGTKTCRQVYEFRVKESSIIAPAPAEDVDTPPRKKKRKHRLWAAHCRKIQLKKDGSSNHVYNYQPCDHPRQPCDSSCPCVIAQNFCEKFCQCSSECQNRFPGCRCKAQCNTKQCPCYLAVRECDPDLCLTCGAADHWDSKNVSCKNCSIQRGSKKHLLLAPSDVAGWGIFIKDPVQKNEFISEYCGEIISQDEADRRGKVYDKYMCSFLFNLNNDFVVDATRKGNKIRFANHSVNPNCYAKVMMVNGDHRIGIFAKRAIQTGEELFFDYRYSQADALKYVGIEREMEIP
T1 sequence (O75530 whole entry partner): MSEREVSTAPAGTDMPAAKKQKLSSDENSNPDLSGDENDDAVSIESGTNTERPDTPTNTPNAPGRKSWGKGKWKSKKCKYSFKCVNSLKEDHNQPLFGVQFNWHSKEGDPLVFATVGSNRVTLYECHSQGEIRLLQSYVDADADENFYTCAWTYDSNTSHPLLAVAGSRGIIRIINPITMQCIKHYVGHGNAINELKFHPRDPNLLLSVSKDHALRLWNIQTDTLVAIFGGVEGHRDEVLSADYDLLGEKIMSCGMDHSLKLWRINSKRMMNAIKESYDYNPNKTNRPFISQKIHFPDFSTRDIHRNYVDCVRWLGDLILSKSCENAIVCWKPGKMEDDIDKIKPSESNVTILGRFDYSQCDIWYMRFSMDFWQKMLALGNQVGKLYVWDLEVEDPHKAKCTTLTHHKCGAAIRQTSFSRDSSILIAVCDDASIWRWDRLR
T1 sequence (Q15022 whole entry partner): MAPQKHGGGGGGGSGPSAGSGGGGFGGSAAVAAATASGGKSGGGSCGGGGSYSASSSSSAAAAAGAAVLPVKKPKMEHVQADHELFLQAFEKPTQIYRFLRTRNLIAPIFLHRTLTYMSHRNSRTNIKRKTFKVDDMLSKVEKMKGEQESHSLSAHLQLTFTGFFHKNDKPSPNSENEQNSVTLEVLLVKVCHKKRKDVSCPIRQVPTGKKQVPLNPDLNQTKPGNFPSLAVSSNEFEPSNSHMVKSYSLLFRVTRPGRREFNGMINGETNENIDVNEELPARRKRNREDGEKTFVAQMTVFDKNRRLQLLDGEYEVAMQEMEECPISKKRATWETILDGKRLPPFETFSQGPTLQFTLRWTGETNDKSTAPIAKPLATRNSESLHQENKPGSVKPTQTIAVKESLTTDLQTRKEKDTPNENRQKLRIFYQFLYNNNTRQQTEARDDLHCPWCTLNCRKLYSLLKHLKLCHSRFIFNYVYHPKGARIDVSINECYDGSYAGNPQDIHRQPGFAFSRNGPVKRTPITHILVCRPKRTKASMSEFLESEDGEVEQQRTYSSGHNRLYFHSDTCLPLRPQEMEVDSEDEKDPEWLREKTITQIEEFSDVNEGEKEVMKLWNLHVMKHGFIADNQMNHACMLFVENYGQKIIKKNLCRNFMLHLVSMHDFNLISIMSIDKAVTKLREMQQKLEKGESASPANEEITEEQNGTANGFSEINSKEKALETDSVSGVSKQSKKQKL
T1 sequence (Q09028 whole entry partner): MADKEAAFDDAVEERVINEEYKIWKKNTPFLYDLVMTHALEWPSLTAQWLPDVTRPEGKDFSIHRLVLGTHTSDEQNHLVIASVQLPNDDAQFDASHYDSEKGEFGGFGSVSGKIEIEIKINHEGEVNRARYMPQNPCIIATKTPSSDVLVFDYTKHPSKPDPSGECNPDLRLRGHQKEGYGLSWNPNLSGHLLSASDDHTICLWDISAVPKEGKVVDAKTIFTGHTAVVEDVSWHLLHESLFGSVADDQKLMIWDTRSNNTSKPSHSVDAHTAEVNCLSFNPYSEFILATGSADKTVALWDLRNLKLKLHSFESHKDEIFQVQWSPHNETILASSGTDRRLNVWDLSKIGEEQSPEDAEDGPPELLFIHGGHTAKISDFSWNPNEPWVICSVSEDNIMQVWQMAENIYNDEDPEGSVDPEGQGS
Procedure: The biotinylated oligonucleotides were incubated with lysates (2 h), and the lysates were incubated with streptavidin magnetic beads overnight. Beads attached to RNAs were divided equally and processed for either RNA isolation or western blotting. For RNA isolation, beads were washed three times and then separated using proteinase K treatment. RNA was then isolated and purified, and DNA was digested in the process. The real-time quantitative RT-PCR was performed on isolated RNA to check the efficiency of pull-down of NXTAR RNA. The remaining beads were heated at 80° C. for 5 min in loading buffer, followed by western blotting. The blots were probed with EZH2 (CST, 5246S; RRID:AB_10694683) antibody and Actin (SCBT, sc-47778; RRID:AB_2714189) was used as the loading control.
as §3

AR promoter = assay: ChIP-qPCR (EZH2, H3K27me3) at AR promoter; assay type: cell-based, human; conditions: VCaP cells transfected with oligo, ChIP
Procedure: (§4) Chromatin immunoprecipitation (ChIP), quantitative RT-PCR, and ChIP-qPCR were performed as described earlier (see e.g., Mahajan et al. (2017) Cancer Cell; Mahajan et al. (2012) J Biol Chem; and Mahajan et al. (2012) Nat Struct Mol Bio). Briefly, cells were either transfected, infected or treated with various inhibitors (R)-9b; CPTH2 (Sigma, Cat #C9873)], fixed in formaldehyde, lysed and ChIP was performed with antibodies recognizing AR (SCBT, sc-7305; RRID:AB_626671), GCN5 (SCBT, SC-365321; RRID:AB_10846182), H3K14ac (CST, 7627S; RRID:AB_10839410), H3K27me3 (CST, 9733S; RRID:AB 2616029), NCOR1 (Bethyl Laboratories, Cat #A301-145A; RRID:AB_873085), EZH2 (CST, 5246S; RRID:AB_10694683), or IgG (Abcam, ab2410; RRID:AB_303052), immobilized on Protein A magnetic beads (Biorad, Cat #161-4013). The complexes were washed with ChIP buffers, eluted with elution buffer (Active Motif, Cat #53008), and subjected to reverse crosslinking, followed by RNase and proteinase K treatments. A part of soluble chromatin was processed separately at the same time and designated as input DNA. Treated ChIP DNA and input DNAs were purified using PCR-DNA purification columns (Qiagen, Cat #28106). The amount of immunoprecipitated DNA was determined by real-time PCR.

purified EZH2 = target: T2, purified EZH2 (Homo sapiens, UniProt Q15910); assay: EZH2 pull-down assay with purified 6xHis-tagged EZH2; assay type: binding; conditions: pull-down, immunoblotting
T2 construct: made in house
T2 sequence (Q15910 whole entry): as the sequence (Q15910 whole entry) above
Procedure: 1 mg of lysate prepared from HEK293 cells transfected with 6λHis-tagged-EZH2 plasmid was incubated with Ni-NTA agarose beads (Qiagene) overnight at 4° C. Beads were washed three times using wash buffer (20 mM Tris/HCl, 200 mM NaCl, 5 mM imidazole; pH 7.5) and purified EZH2 was eluted using elution buffer (20 mM Tris/HCl, 200 mM NaCl, 200 mM imidazole; pH 7.5).
LncRNA-Protein binding study was performed as described earlier (see e.g., Zhao, Wang, and Hu (2021) Methods Mol Bio). Briefly, 10 pmol Biotinylated NXTAR-N5 oligo or Biotinylated Globin oligos were diluted in 40 ul RNA structure buffer, heated at 90° C. for 2 min, immediately transferred onto ice for 2 min and then kept at RT for further 20 mins. 10 uM of purified EZH2 protein was added to these biotinylated oligos with 500 ul of NETN buffer and the tubes were placed at 4° C. for 2 hrs. Post washing with cold NETN buffer, streptavidin magnetic beads (60 ul) were added into prepared oligo-protein mix and incubated at 4° C. overnight. Beads were washed 3 times with NETN buffer, followed by western blot analysis. […]

AR-V7 = assay: qRT-PCR of AR-V7 expression in prostate cancer cells; assay type: cell-based, human; conditions: VCaP and 22Rv1 cells transfected with oligonucleotide
Procedure: as §1
as §2, with “18S rRNA or actin were used as internal controls.” left out

NXTAR = assay: qRT-PCR of NXTAR expression in prostate cancer cell lines; assay type: cell-based, human
Procedure: as §2

NXTAR promoter = assay: ChIP-qPCR at NXTAR promoter (Ppr3, Ppr4), IRF8 binding site and NXTAR enhancer; assay type: cell-based, human; conditions: 22Rv1 and LNCaP cells, (R)-9b combined with CPTH2
Procedure: as §4

[1] = Enzalutamide-resistant VCaP cells, 7 μM enzalutamide, 96 h

Molecule: CCN(c1cc(-c2ccc(CN3CCOCC3)cc2)cc(C(=O)NCc2c(C)cc(C)[nH]c2=O)c1C)C1CCOCC1 [EPZ6438, reference compound]
- AR expression (AR; VCaP cells infected with NXTAR construct, EPZ6438 1 μM overnight): restored the AR expression

Molecule: NXTAR-N5: 60-mer oligonucleotide, nt 511-570 of SEQ ID NO: 58, terminal phosphorothioate bonds (SEQ ID NO: 1) (DNA dA*dT*dT*dAdTdTdAdTdTdTdTdAdAdAdTdTdTdAdCdAdGdAdAdGdGdGdGdAdAdAdCdTdAdAdGdAdAdTdTdAdTdAdGdAdCdAdTdGdAdAdGdTdGdAdCdTdC*dA*dC*dC)
- binding upstream of AR (upstream of AR): bound upstream of AR
- proliferation (live cells) (VCaP and 22Rv1 cells; VCaP and 22Rv1 cells, 96 h post-transfection): compromised proliferation
- interaction with EZH2 (EZH2): interaction with EZH2 was confirmed
- histone H3K27 methylation in the AR promoter region (−0.7 kb) (AR promoter): induced histone H3K27 methylation
- interaction with purified EZH2 (purified EZH2): interaction with purified EZH2 (as described above) was confirmed
- AR-V7 transcription (AR-V7): significant decrease
- AR transcription (AR; VCaP and 22Rv1 cells transfected with oligonucleotide): significant decrease
- AR expression (AR; transfection of oligos, prostate and other cancer cell lines): highly effective

Molecule: CNC(=O)c1ccc(N2C(=S)N(c3ccc(C#N)c(C(F)(F)F)c3)C(=O)C2(C)C)cc1F [enzalutamide, reference compound]
- proliferation (number of viable cells) (VCaP and 22Rv1 cells; VCaP (9 days) and 22Rv1 (5 days) cells, androgen-deprived, drug treatment): did not result in a significant decrease in proliferation
- NXTAR levels (NXTAR; [1]): no change in NXTAR levels
- AR levels (AR; [1]): marginal decrease in AR levels

- H3K14ac mark deposition at Ppr3 and Ppr4 (NXTAR promoter): abrogated
Molecule: Clc1ccc(-c2csc(NN=C3CCCC3)n2)cc1 [CPTH2]
- NXTAR levels following (R)-9b treatment under GCN5 inhibition (NXTAR; 22Rv1 and LNCaP cells, CPTH2 in combination with (R)-9b): severely compromised

From patent US12194057B2, “NXTAR-derived oligonucleotides and uses thereof” (Washington University, priority 2020, dated 2025)
